{"source": "patent US6156700A", "about": "“3-(1,2-Benzisothiazol- and isoxazol-5-yl)-2,4(1H,3H)-pyrimidinedione or thione and 3-(1,2-benzisothiazol- and isoxazol-5-yl)-4(3H)-pyrimidinone or thione herbicidal agents” (American Cyanmid Company, priority 1998, dated 2000)", "key": {"[1]": {"test_system": "Velvetleaf, Abutilon theophrasti", "assay": "Postemergence herbicidal evaluation, ABUTH", "assay_type": "in vivo, Medic.", "summary_of_the_method": "(§1)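 Foliar spray, 40 psi, ~0.0157–0.500 kg a.i./ha, vehicle acetone/water 1:1 with 0.5% TWEEN 20, on seedlings grown ~2 weeks. Readout: 0–9 visual injury score relative to control at 4–5 weeks.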"}, "[2]": {"test_system": "Sicklepod, Cassia obtusifolia", "assay": "Postemergence herbicidal evaluation, CASOB", "assay_type": "in vivo, L.", "summary_of_the_method": "as §1"}, "[3]": {"test_system": "Galium, Galium aparine", "assay": "Postemergence herbicidal evaluation, GALAP", "assay_type": "in vivo", "summary_of_the_method": "as §1"}, "[4]": {"test_system": "Morningglory Spp., Ipomoea Spp.", "assay": "Postemergence herbicidal evaluation, IPOSS", "assay_type": "in vivo", "settings": "0.2500 kg/ha", "method": "In the tests, seedling plants are grown in jiffy flats for about two weeks. The test compounds are dispersed in 50/50 acetone/water mixtures containing 0.5% TWEEN®20, a polyoxyethylene sorbitan monolaurate surfactant of Atlas Chemical Industries, in sufficient quantities to provide the equivalent of about 0.0157 kg to 0.500 kg per hectare of active compound when applied to the plants through a spray nozzle operating at 40 psi for a predetermined time. After spraying, the plants are placed on greenhouse benches and are cared for in accordance with conventional greenhouse procedures. From four to five weeks after treatment, the seedling plants are examined and rated according to the rating system set forth below. Where more than one test is involved for a given compound, the data are averaged.\nResults of herbicide evaluation are expressed on a rating scale (0-9). The scale is based upon a visual observation of plant stand, vigor, malformation, size, chlorosis and overall plant appearance as compared with a control."}, "[5]": {"test_system": "Foxtail, Green, Setaria viridis", "assay": "Postemergence herbicidal evaluation, SETVI", "assay_type": "in vivo, (L.) Beau", "summary_of_the_method": "as §1"}, "[6]": {"test_system": "Ragweed, Common, Ambrosia artemisifolia", "assay": "Preemergence herbicidal evaluation, AMBEL", "assay_type": "in vivo, L.", "settings": "0.2500 kg/ha", "summary_of_the_method": "(§2)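 Compound is applied preemergence: seeds are sown in potting soil, and cups are sprayed with an aqueous acetone solution giving roughly 0.0156 to 0.500 kg/ha. After 4–5 weeks in the greenhouse, each cup is scored 0–9 by eye against a control.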"}, "[7]": {"test_system": "Rice, Tebonnet, Oryza sativa", "assay": "Preemergence herbicidal evaluation, ORYSAT", "assay_type": "in vivo, (L.) Tebonnet", "settings": "0.2500 kg/ha", "summary_of_the_method": "as §2"}, "[8]": {"test_system": "Wheat, Winter, cv Riband, Triticum aestivum", "assay": "Preemergence herbicidal evaluation, TRZAWR", "assay_type": "in vivo", "settings": "0.2500 kg/ha", "summary_of_the_method": "as §2"}, "[9]": {"test_system": "CYPSE Flatsedge", "assay": "Preemergence weed control, flooded paddy (Table III)", "assay_type": "in vivo, Cyperus serotinus", "parameters": "scale not given here", "method": "(§3) Preemergence herbicidal activity under flooded paddy conditions is determined as follows: plant seeds or propagating organs are planted in the top 0.5 cm of silt loam soil in 32 oz. plastic containers with a diameter of 10.5 cm and no drainage holes. Water is added to these containers and maintained at 1.5 to 3 cm above the soil surface for the duration of the experiment. The test compounds are applied as aqueous/acetone mixtures 50/50 v/v pipetted directly into the flood water to give the equivalent of about 0.0313 to 0.500 kg/ha of active ingredient. The treated containers are placed on greenhouse benches and cared for in accordance with conventional greenhouse procedures. Three to four weeks after treatment, the test is terminated and each container is examined and herbicidal effect rated according to the rating system provided in Example 185. The compounds evaluated are reported by compound number given in Example 185."}, "[10]": {"test_system": "MOOVA Monochoria", "assay": "Preemergence weed control, flooded paddy (Table III)", "assay_type": "in vivo, Monochoria vaginalis", "parameters": "scale not given here", "method": "as §3"}, "[11]": {"test_system": "ORYSAT Rice, Tebonnet", "assay": "Tolerance of transplanted rice to post-transplant application (Table III)", "assay_type": "in vivo, Oryza sativa", "parameters": "scale not given here", "settings": "crop tolerance", "method": "The tolerance of transplanted rice to post-transplanted herbicide applications is determined as follows: two ten-day-old rice seedlings (cv. Tebonnet) are transplanted into silt loam soil in 32 oz. plastic containers with a diameter of 10.5 cm and no drainage holes. After transplanting, the containers are flooded and the water level is maintained at 1.5 to 3 cm above the soil surface. Three days after transplanting, the flooded soil surface of the containers is treated with the selected aqueous/acetone 50/50 v/v mixture containing the test compounds to provide the equivalent of about 0.0313 to 0.500 kg/ha of active ingredient. The treated containers are placed on greenhouse benches, watered such that the water level is maintained as stated above, and cared for in accordance with conventional greenhouse procedures. Three to four weeks after treatment, the test is terminated and each container is examined and herbicidal effect rated according to the rating system provided in Example 185. The compounds evaluated are reported by compound number given in Example 185."}, "[12]": {"test_system": "CYPIR Rice Flatsedge", "assay": "Postemergence weed control, flooded paddy (Table IV)", "assay_type": "in vivo, Cyperus iria", "parameters": "scale not given here", "excerpt": "(§4) Plastic containers containing weeds which are 3 to 5 cm tall and rice seedlings at the 1.5 to 2.5 leaf stage are flooded with water. The water is maintained at 1.5 to 3 cm above the soil surface for the duration of the experiment. Test compounds are applied as aqueous/acetone mixtures 50/50 v/v directly into the flood water to provide the equivalent of about 0.0313 to 0.500 kg/ha of active ingredient. The treated containers are placed on greenhouse benches and cared for in accordance with conventional greenhouse procedures. Three to four weeks after treatment, the test is terminated and each container is examined and herbicidal effect rated according to the rating system provided in Example 185. The compounds evaluated are reported by compound number given in Example 185."}, "[13]": {"test_system": "CYPSE Flatsedge", "assay": "Postemergence weed control, flooded paddy (Table IV)", "assay_type": "in vivo, Cyperus serotinus", "parameters": "scale not given here", "excerpt": "as §4"}, "[14]": {"test_system": "MOOVA Monochoria", "assay": "Postemergence weed control, flooded paddy (Table IV)", "assay_type": "in vivo, Monochoria vaginalis", "parameters": "scale not given here", "excerpt": "as §4"}, "[15]": {"test_system": "SAGPY Arrowhead (Pygmaea)", "assay": "Postemergence weed control, flooded paddy (Table IV)", "assay_type": "in vivo, Sagittaria pygmaea", "parameters": "scale not given here", "excerpt": "as §4"}, "[16]": {"test_system": "ORYSAT Rice, Tebonnet", "assay": "Rice tolerance, flooded paddy (Table IV)", "assay_type": "in vivo, Oryza sativa", "parameters": "scale not given here", "settings": "crop tolerance", "excerpt": "as §4"}}}
{"smiles": "COc1ccc(C)cc1-c1nsc2ccc(-n3c(=O)cc(C(F)(F)F)n(C)c3=O)cc12", "note": "[Compound 1, 3-[3-(6-Methoxy-m-tolyl)-1,2-benzisothiazol-5-yl]-1-methyl-6-(trifluoromethyl)-2,4(1H,3H)-pyrimidinedione]", "values": [{"measurement": "herbicide rating (0-9)", "setting": "[1]; 0.0630 kg/ha", "value": 9.0}, {"measurement": "herbicide rating (0-9)", "setting": "[1]; 0.2500 kg/ha", "value": 9.0}, {"measurement": "herbicide rating (0-9)", "setting": "[2]; 0.0630 kg/ha", "value": 9.0}, {"measurement": "herbicide rating (0-9)", "setting": "[2]; 0.2500 kg/ha", "value": 8.0}, {"measurement": "herbicide rating (0-9)", "setting": "[3]; 0.0630 kg/ha", "value": 9.0}, {"measurement": "herbicide rating (0-9)", "setting": "[3]; 0.2500 kg/ha", "value": 9.0}, {"measurement": "herbicide rating (0-9)", "setting": "[4]", "value": 9.0}, {"measurement": "herbicide rating (0-9)", "setting": "[5]; 0.0630 kg/ha", "value": 9.0}, {"measurement": "herbicide rating (0-9)", "setting": "[5]; 0.2500 kg/ha", "value": 9.0}, {"measurement": "herbicide rating (0-9)", "setting": "[6]", "value": 9.0}, {"measurement": "herbicide rating (0-9)", "setting": "[7]", "value": 7.5}, {"measurement": "herbicide rating (0-9)", "setting": "[8]", "value": 6.0}, {"measurement": "herbicidal effect rating", "setting": "[9]; 0.0313 kg/ha", "value": 1.3}, {"measurement": "herbicidal effect rating", "setting": "[9]; 0.0625 kg/ha", "value": 3.0}, {"measurement": "herbicidal effect rating", "setting": "[9]; 0.1250 kg/ha", "value": 6.0}, {"measurement": "herbicidal effect rating", "setting": "[9]; 0.2500 kg/ha", "value": 9.0}, {"measurement": "herbicidal effect rating", "setting": "[9]; 0.5000 kg/ha", "value": 8.0}, {"measurement": "herbicidal effect rating", "setting": "[10]; 0.0313 kg/ha", "value": 9.0}, {"measurement": "herbicidal effect rating", "setting": "[10]; 0.0625 kg/ha", "value": 9.0}, {"measurement": "herbicidal effect rating", "setting": "[10]; 0.1250 kg/ha", "value": 9.0}, {"measurement": "herbicidal effect rating", "setting": "[10]; 0.2500 kg/ha", "value": 9.0}, {"measurement": "herbicidal effect rating", "setting": "[10]; 0.5000 kg/ha", "value": 9.0}, {"measurement": "herbicidal effect rating", "setting": "[11]; 0.0313 kg/ha", "value": 4.7}, {"measurement": "herbicidal effect rating", "setting": "[11]; 0.0625 kg/ha", "value": 4.7}, {"measurement": "herbicidal effect rating", "setting": "[11]; 0.1250 kg/ha", "value": 5.3}, {"measurement": "herbicidal effect rating", "setting": "[11]; 0.2500 kg/ha", "value": 7.7}, {"measurement": "herbicidal effect rating", "setting": "[11]; 0.5000 kg/ha", "value": 7.0}, {"measurement": "herbicidal effect rating", "setting": "[12]; 0.1250 kg/ha", "value": 9.0}, {"measurement": "herbicidal effect rating", "setting": "[12]; 0.2500 kg/ha", "value": 9.0}, {"measurement": "herbicidal effect rating", "setting": "[12]; 0.5000 kg/ha", "value": 9.0}, {"measurement": "herbicidal effect rating", "setting": "[13]; 0.1250 kg/ha", "value": 3.0}, {"measurement": "herbicidal effect rating", "setting": "[13]; 0.2500 kg/ha", "value": 5.5}, {"measurement": "herbicidal effect rating", "setting": "[13]; 0.5000 kg/ha", "value": 6.5}, {"measurement": "herbicidal effect rating", "setting": "[14]; 0.1250 kg/ha", "value": 4.5}, {"measurement": "herbicidal effect rating", "setting": "[14]; 0.2500 kg/ha", "value": 5.5}, {"measurement": "herbicidal effect rating", "setting": "[14]; 0.5000 kg/ha", "value": 6.5}, {"measurement": "herbicidal effect rating", "setting": "[15]; 0.1250 kg/ha", "value": 0.0}, {"measurement": "herbicidal effect rating", "setting": "[15]; 0.2500 kg/ha", "value": 1.0}, {"measurement": "herbicidal effect rating", "setting": "[15]; 0.5000 kg/ha", "value": 3.0}, {"measurement": "herbicidal effect rating", "setting": "[16]; 0.1250 kg/ha", "value": 4.0}, {"measurement": "herbicidal effect rating", "setting": "[16]; 0.2500 kg/ha", "value": 6.0}, {"measurement": "herbicidal effect rating", "setting": "[16]; 0.5000 kg/ha", "value": 7.0}]}
